Assays:
[1] = system: bedstraw; test: Test B pre/postemergence bedstraw; format: in vivo, Galium aparine
Procedure, shortened: (§1)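 Herbicidal effect was estimated by eye on a ten-point control scale after plants spent twelve to sixteen days in a greenhouse following soil or foliar treatment. Foliar sprays targeted plants at one to four leaves; all doses were formulated in a non-phytotoxic solvent with surfactant.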

[2] = system: blackgrass; test: Test B pre/postemergence blackgrass; format: in vivo, Alopecurus myosuroides
Procedure, shortened: as §1

[3] = system: giant foxtail; test: Test B pre/postemergence giant foxtail; format: in vivo, Setaria faberii
Procedure, shortened: as §1

[4] = system: morningglory; test: Test B pre/postemergence morningglory; format: in vivo, Ipomoea hederacea
Procedure, shortened: as §1

[5] = system: pigweed; test: Test B pre/postemergence pigweed; format: in vivo, Amaranthus retroflexus
Procedure, shortened: as §1

[6] = system: rape; test: Test B pre/postemergence rape; format: in vivo, Brassica napus
Procedure, shortened: as §1

[7] = system: soybean; test: Test B pre/postemergence soybean; format: in vivo, Glycine max
Procedure, shortened: as §1

[8] = system: sugar beet; test: Test B pre/postemergence sugar beet; format: in vivo, Beta vulgaris
Procedure, shortened: as §1

[9] = system: velvetleaf; test: Test B pre/postemergence velvetleaf; format: in vivo, Abutilon theophrasti
Procedure, shortened: as §1

[10] = system: wheat; test: Test B pre/postemergence wheat; format: in vivo, Triticum aestivum
Procedure, shortened: as §1

[11] = system: wild oat; test: Test B pre/postemergence wild oat; format: in vivo, Avena fatua
Procedure, shortened: as §1

[12] = system: purple nutsedge; test: Test B pre/postemergence purple nutsedge; format: in vivo, Cyperus rotundus; conditions: Postemergence
Procedure, shortened: as §1

[13] = system: rice; test: Test B flood test rice; format: in vivo, Oryza sativa
Procedure, shortened: (§2)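 Read-out is a visual response score from 0 (no effect) to 10 (complete control), assigned by comparison with untreated controls. Treatment was applied at the 2-leaf stage, and plants stayed in the greenhouse for twelve to sixteen days before scoring.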

[14] = system: smallflower flatsedge; test: Test B flood test smallflower flatsedge; format: in vivo, Cyperus difformis
Procedure, shortened: as §2

[15] = system: duck salad; test: Test B flood test duck salad; format: in vivo, Heteranthera limosa
Procedure, shortened: as §2

[16] = system: bamyardgrass; test: Test B flood test barnyardgrass; format: in vivo, Echinochloa crus-galli
Procedure, shortened: as §2

[17] = Postemergence, Rate 250 g/ha, scale 0 to 10, 0 no effect, 10 complete control
[18] = Postemergence, Rate 1000 g/ha, scale 0 to 10 (0 no effect, 10 complete control)
[19] = Preemergence, Rate 125 g/ha, scale 0 to 10 (0 no effect, 10 complete control)
[20] = Preemergence, Rate 250 g/ha, scale of 0 to 10 where 0 is no effect and 10 is complete control
[21] = Preemergence, Rate 500 g/ha, scale 0 (no effect) to 10 (complete control)
[22] = Rate 125 g/ha, Postemergence, scale 0 to 10, 0 no effect, 10 complete control
[23] = Rate 500 g/ha, Postemergence, 0 to 10 scale (0 no effect, 10 complete control)
[24] = Rate 1000 g/ha, Preemergence, scale 0 to 10 (0 no effect, 10 complete control)
[25] = Rate 125 g/ha, Postemergence section (flood test species), scale 0 to 10, 0 no effect, 10 complete control
[26] = Rate 500 g/ha, Postemergence section of Table B, 0 to 10 scale (0 no effect, 10 complete control)
[27] = flood test, listed under Postemergence, Rate 250 g/ha, scale 0 to 10, 0 no effect, 10 complete control

For `CCN(CC)C(=O)n1oc(=O)n(-c2c(C)cccc2C)c1=O` [Compound 2], the “Bedstraw plant response rating” value [1, 17] was 0, the “Bedstraw plant response rating” value [1, 18] was 0 and the “Plant response rating, Bedstraw” value [1, 19] was 0. For the same compound, the “Plant response rating, Bedstraw” value [1, 20] was 0, the “Bedstraw plant response rating” value [1, 21] was 0 and the “Bedstraw plant response rating” value [1, 22] was 0. For the same compound, the “Bedstraw plant response rating” value [1, 23] was 0, the “Plant response rating, Bedstraw” value [1, 24] was 0 and the “Blackgrass plant response rating” value [2, 17] was 4. For the same compound, the “Blackgrass plant response rating” value [2, 18] was 9, the “Plant response rating, Blackgrass” value [2, 19] was 0 and the “Plant response rating, Blackgrass” value [2, 20] was 0. For the same compound, the “Blackgrass plant response rating” value [2, 21] was 0, the “Blackgrass plant response rating” value [2, 22] was 0 and the “Blackgrass plant response rating” value [2, 23] was 8. For the same compound, the “Plant response rating, Blackgrass” value [2, 24] was 7, the “Giant foxtail plant response rating” value [3, 17] was 7 and the “Giant foxtail plant response rating” value [3, 18] was 8. For the same compound, the “Plant response rating, Giant foxtail” value [3, 19] was 6, the “Plant response rating, Giant foxtail” value [3, 20] was 7 and the “Giant foxtail plant response rating” value [3, 21] was 7. The “Giant foxtail plant response rating” value [3, 22] was 0, the “Giant foxtail plant response rating” value [3, 23] was 7 and the “Plant response rating, Giant foxtail” value [3, 24] was 10. The “Morningglory plant response rating” value [4, 17] was 0, the “Morningglory plant response rating” value [4, 18] was 5 and the “Plant response rating, Morningglory” value [4, 19] was 0. For the same compound, the “Plant response rating, Morningglory” value [4, 20] was 0, the “Morningglory plant response rating” value [4, 21] was 0 and the “Morningglory plant response rating” value [4, 22] was 0. For the same compound, the “Morningglory plant response rating” value [4, 23] was 0, the “Plant response rating, Morningglory” value [4, 24] was 0 and the “Redroot pigweed plant response rating” value [5, 17] was 0. For the same compound, the “Redroot pigweed plant response rating” value [5, 18] was 0, the “Plant response rating, Redroot pigweed” value [5, 19] was 0 and the “Plant response rating, Redroot pigweed” value [5, 20] was 0. For the same compound, the “Redroot pigweed plant response rating” value [5, 21] was 0, the “Redroot pigweed plant response rating” value [5, 22] was 0 and the “Redroot pigweed plant response rating” value [5, 23] was 0. The “Plant response rating, Redroot pigweed” value [5, 24] was 0, the “Rape plant response rating” value [6, 17] was 0 and the “Rape plant response rating” value [6, 18] was 0. The “Plant response rating, Rape” value [6, 19] was 0, the “Plant response rating, Rape” value [6, 20] was 0 and the “Rape plant response rating” value [6, 21] was 0. The “Rape plant response rating” value [6, 22] was 0, the “Rape plant response rating” value [6, 23] was 0 and the “Plant response rating, Rape” value [6, 24] was 0. The “Soybean plant response rating” value [7, 17] was 1, the “Soybean plant response rating” value [7, 18] was 4 and the “Plant response rating, Soybean” value [7, 19] was 0. The “Plant response rating, Soybean” value [7, 20] was 0, the “Soybean plant response rating” value [7, 21] was 0 and the “Soybean plant response rating” value [7, 22] was 0. The “Plant response rating, Soybean” value [7, 24] was 3, the “Sugarbeets plant response rating” value [8, 17] was 0 and the “Sugarbeets plant response rating” value [8, 18] was 0. For the same compound, the “Plant response rating, Sugarbeets” value [8, 19] was 0, the “Plant response rating, Sugarbeets” value [8, 20] was 0 and the “Sugarbeets plant response rating” value [8, 21] was 0. For the same compound, the “Sugarbeets plant response rating” value [8, 22] was 0, the “Plant response rating, Sugarbeets” value [8, 24] was 0 and the “Velvetleaf plant response rating” value [9, 17] was 0. The “Velvetleaf plant response rating” value [9, 18] was 0, the “Plant response rating, Velvetleaf” value [9, 19] was 0 and the “Plant response rating, Velvetleaf” value [9, 20] was 0. For the same compound, the “Velvetleaf plant response rating” value [9, 21] was 0, the “Velvetleaf plant response rating” value [9, 22] was 0 and the “Plant response rating, Velvetleaf” value [9, 24] was 2. For the same compound, the “Wheat plant response rating” value [10, 17] was 0, the “Wheat plant response rating” value [10, 18] was 0 and the “Plant response rating, Wheat” value [10, 19] was 0. The “Plant response rating, Wheat” value [10, 20] was 0, the “Wheat plant response rating” value [10, 21] was 0 and the “Wheat plant response rating” value [10, 22] was 0. For the same compound, the “Plant response rating, Wheat” value [10, 24] was 0, the “Wild oats plant response rating” value [11, 17] was 0 and the “Wild oats plant response rating” value [11, 18] was 0. For the same compound, the “Plant response rating, Wild oats” value [11, 19] was 0, the “Plant response rating, Wild oats” value [11, 20] was 0 and the “Wild oats plant response rating” value [11, 21] was 0. For the same compound, the “Wild oats plant response rating” value [11, 22] was 0, the “Plant response rating, Wild oats” value [11, 24] was 4 and the “Nutsedge plant response rating” value ([12]; Rate 250 g/ha, scale 0 to 10, 0 no effect, 10 complete control) was 0. For the same compound, the “Nutsedge plant response rating” value ([12]; Rate 1000 g/ha, scale 0 to 10 (0 no effect, 10 complete control)) was 0, the “Nutsedge plant response rating” value ([12]; Rate 125 g/ha, scale 0 to 10, 0 no effect, 10 complete control) was 0 and the “Nutsedge plant response rating” value ([12]; Rate 500 g/ha, 0 to 10 scale (0 no effect, 10 complete control)) was 0. For the same compound, the “Rice plant response rating” value [13, 18] was 0, the “Rice plant response rating” value [13, 25] was 0 and the “Rice plant response rating” value [13, 26] was 0. The “Rice plant response rating” value [13, 27] was 0, the “S. Flatsedge plant response rating” value [14, 18] was 0 and the “S. Flatsedge plant response rating” value [14, 25] was 0. For the same compound, the “S. Flatsedge plant response rating” value [14, 27] was 0, the “Ducksalad plant response rating” value [15, 18] was 0 and the “Ducksalad plant response rating” value [15, 25] was 0. The “Ducksalad plant response rating” value [15, 26] was 0, the “Ducksalad plant response rating” value [15, 27] was 0 and the “Barnyardgrass plant response rating” value [16, 18] was 0. The “Barnyardgrass plant response rating” value [16, 25] was 0, the “Barnyardgrass plant response rating” value [16, 26] was 0 and the “Barnyardgrass plant response rating” value [16, 27] was 0.

Reference: patent US6737383B1, “Herbicidal oxadiazolidines” (priority 1999, dated 2004)
